The numbers were not newly measured in article PMC8942822 (The Journal of Biological Chemistry, 2022), which cites them from elsewhere.

The pKd is −log10 of the Kd, conventionally taken in molar units.

Data set [1] addresses T1, SpaASLH (SLH domain trimer of S-layer protein SpaA, wild-type) (Paenibacillus alvei, UniProt C1JZ07).
T1 sequence (C1JZ07 21-193): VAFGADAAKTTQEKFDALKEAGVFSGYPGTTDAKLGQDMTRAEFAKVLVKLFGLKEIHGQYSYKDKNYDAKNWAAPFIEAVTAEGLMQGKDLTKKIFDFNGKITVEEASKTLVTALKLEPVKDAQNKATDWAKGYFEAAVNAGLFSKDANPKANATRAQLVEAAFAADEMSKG

In data set [2] the target is T2, SpaASLH/G109A (Paenibacillus alvei, UniProt C1JZ07, G109A).
T2 sequence (C1JZ07 21-193 G109A): T1 sequence (C1JZ07 21-193)

Data set [3] has as its system SpaASLH/G46A/G109A. The settings on record: 20 °C, SpaASLH/G46A/G109A double mutant, previously published.
Where [4] appears, read: ITC, 20 °C, SpaASLH wild-type, previously published.
[5] abbreviates: ITC, 20 °C, SpaASLH/G109A, previously published.

pKd: −log10 of the molar value.

Take `CO[C@@H]1O[C@@H]2CO[C@](C)(C(=O)O)O[C@H]2[C@H](O[C@@H]2O[C@H](CO)[C@@H](O)[C@H](O)[C@H]2NC(C)=O)[C@@H]1NC(C)=O` [internal disaccharide, β-D-GlcNAc-(1→3)-4,6-Pyr-β-D-ManNAcOMe]: the “Binding by ITC” value in data set [1] (ITC experiments with internal-repeat SCWP disaccharide) is reported as “lack of corresponding measurable binding”.

`CO[C@@H]1O[C@@H]2CO[C@](C)(C(=O)O)O[C@H]2[C@H](O)[C@@H]1NC(C)=O` [monosaccharide, 4,6-Pyr-β-D-ManNAcOMe]: in data set [1] (setting [4]), the KA is 3.48 × 10^7 ± 0.36 M^−1, the pKd was 7.54, the Stoichiometry is recorded as 0.91 ± 0.04 and the ΔG is -42.10 ± 0.65 kJ/mol. Also, in data set [1] (setting [4]), the ΔH is -87.85 ± 15.62 kJ/mol and the “−TΔS” value is 45.74 ± 16.01 kJ/mol. Besides, the “Decrease of ITC binding affinity, G109A mutant (G1 binding) vs wild-type” value in data set [2] is reported as “tenfold”. In addition, in data set [2] (setting [5]), the KA is 4.48 × 10^6 ± 0.62 M^−1, the pKd is 6.65, the Stoichiometry is given as 0.92 ± 0.04 and the ΔG was -37.31 ± 0.33 kJ/mol. For the same compound, in data set [2] (setting [5]), the ΔH is -50.64 ± 7.29 kJ/mol and the “−TΔS” value is reported as 13.33 ± 7.0 kJ/mol. In addition, the “Binding by ITC” value in data set [3] is on record as “No binding”.
